Measurements: ChEMBL document CHEMBL3872241, “Synthesis and bioactivity evaluation of 2,3-diaryl acrylonitrile derivatives as potential anticancer agents” (Bioorg Med Chem Lett, 2017)
Active and inactive are the calls of the source. The rule behind the calls is not given here.

What was measured:
[1] = Cytotoxicity against human HCT116 cells assessed as cell growth inhibition after 48 hrs by MTT assay; format: functional, cell-based; settings: HCT-116, 48 h
[2] = Cytotoxicity against human HeLa cells assessed as cell growth inhibition after 48 hrs by MTT assay; format: functional, cell-based
[3] = Cytotoxicity against human Bel7402 cells assessed as cell growth inhibition after 48 hrs by MTT assay; format: functional, cell-based; settings: Bel-7402, 48 h
[4] = Cytotoxicity against human L02 cells assessed as cell growth inhibition after 48 hrs by MTT assay; format: toxicity, cell-based
HCT-116 [5] = test: Selectivity index, ratio of IC50 for human L02 cells to IC50 for human HCT116 cells; format: functional
Bel-7402 [6] = test: Selectivity index, ratio of IC50 for human L02 cells to IC50 for human Bel7402 cells; format: functional
[7] = Cytotoxicity against human L02 cells assessed as cell growth inhibition at 100 uM after 48 hrs by MTT assay; format: toxicity, cell-based; settings: read-out: GI
HeLa [8] = test: Selectivity index, ratio of IC50 for human L02 cells to IC50 for human HeLa cells; format: functional
[9] = Cell cycle arrest in human HeLa cells assessed as accumulation at G0/G1 phase at 0.1 to 1 uM after 24 hrs by propidium iodide-based FACS analysis (reference value: 61.71%); format: functional
[10] = Cell cycle arrest in human HeLa cells assessed as accumulation at S phase at 0.1 to 1 uM after 24 hrs by propidium iodide-based FACS analysis (reference value: 31.26%); format: functional
[11] = Cell cycle arrest in human HeLa cells assessed as accumulation at G2/M phase at 0.1 to 1 uM after 24 hrs by propidium iodide-based FACS analysis (reference value: 7.12%); format: functional
HCT-116 [12] = test: (§1) Cytotoxicity against human HCT116 cells assessed as cell growth inhibition at 100 uM after 48 hrs by MTT assay; format: functional
Bel-7402 [13] = test: (§2) Cytotoxicity against human Bel7402 cells assessed as cell growth inhibition at 100 uM after 48 hrs by MTT assay; format: functional
[14] = Cell cycle arrest in human HeLa cells assessed as accumulation at G0/G1 phase at 50 uM after 24 hrs by propidium iodide-based FACS analysis (reference value: 61.71%); format: functional
[15] = Cell cycle arrest in human HeLa cells assessed as accumulation at S phase at 50 uM after 24 hrs by propidium iodide-based FACS analysis (reference value: 31.26%); format: functional
[16] = Cell cycle arrest in human HeLa cells assessed as accumulation at G2/M phase at 50 uM after 24 hrs by propidium iodide-based FACS analysis (reference value: 7.12%); format: functional
[17] = Cytotoxicity against human Caco2 cells assessed as cell growth inhibition at 0.3 uM by SRB assay; format: functional; settings: Caco-2, read-out: GI
HeLa [18] = test: Antimigratory activity in human HeLa cells at 1 uM after 24 hrs by wound-scratch assay; format: functional, cell-based
HeLa [19] = test: Induction of apoptosis in human HeLa cells assessed as increase in early apoptotic cells at 0.1 uM after 24 hrs by Annexin V-FITC/propidium iodide based FACS analysis; format: functional, cell-based
[20] = as §2; format: functional; settings: Bel-7402, 48 h, read-out: GI
[21] = as §1; format: functional; settings: HCT-116, 48 h, read-out: GI
[22] = Cytotoxicity against human HeLa cells assessed as cell growth inhibition at 100 uM after 48 hrs by MTT assay; format: functional; settings: read-out: GI

SMILES | IC50 [1] [µM] | IC50 [2] [µM] | IC50 [3] [µM] | IC50 at 48 h [4] [µM] | Ratio IC50 (HCT-116 [5]) | inhibition at 48 h, 100 µM [7] [%] | Ratio IC50 (HeLa [8]) | Activity [9] [%] | Activity [10] [%] | Activity [11] [%] | inhibition of growth at 100 µM [20] [%] | inhibition of growth at 100 µM [21] [%] | inhibition of growth at 100 µM [22] [%] | other results
CCOc1ccc(/C=C(\C#N)c2cc(OC)cc(OC)c2)cc1 | 0.13 | 7.77 | 0.66 | > 100 | >769.23 | 34.7 | >12.87 | 0.74 | 47.6 | 51.6 | – | – | – | Ratio IC50 (Bel-7402 [6]): >151.52
Oc1ccc(/C=C/c2cc(O)cc(O)c2)cc1 [RESVERATROL] | 62.6 | 120 | 139 | – | – | – | – | – | – | – | – | – | – | growth inhibition (GI) (HCT-116 [12]): Active; growth inhibition (GI) (Bel-7402 [13]): Active; Activity [14]: 72%; Activity [15]: 21.8%; Activity [16]: 6.29%
COc1ccc(/C=C\c2cc(OC)cc(OC)c2)cc1 [8Z-3,4',5-TRIMETHOXYSTILBENE] | – | – | – | – | – | – | – | – | – | – | – | – | – | inhibition of growth at 0.3 µM [17]: 80%
CC(=O)O[C@H]1C(=O)[C@@]2(C)[C@H]([C@H](OC(=O)c3ccccc3)[C@]3(O)C[C@H](OC(=O)[C@H](O)[C@@H](NC(=O)c4ccccc4)c4ccccc4)C(C)=C1C3(C)C)[C@]1(OC(C)=O)CO[C@@H]1C[C@@H]2O [PACLITAXEL] | < 0.1 | 13 | < 0.1 | > 100 | >1000 | – | >7.72 | 1.03 | 28.5 | 70.6 | – | – | – | Ratio IC50 (Bel-7402 [6]): >1000; Activity (HeLa [18]): Active; Activity (HeLa [19]): Active
COc1cc(OC)cc(/C(C#N)=C/c2ccc(Br)cc2)c1 | 11.4 | 4.2 | > 100 | > 100 | >8.79 | 36 | >23.81 | 0.7 | 30.1 | 69.9 | 31.6 | – | – | –
CCOc1cccc(/C=C(\C#N)c2cc(OC)cc(OC)c2)c1 | > 100 | > 100 | > 100 | > 100 | – | 18.5 | – | – | – | – | 5.1 | 38.8 | 8.9 | –
COc1cc(OC)cc(/C(C#N)=C/c2cccc(Br)c2)c1 | > 100 | > 100 | > 100 | > 100 | – | 43.2 | – | – | – | – | 19.8 | 38.2 | 40.2 | –
COc1cccc(/C=C(\C#N)c2cc(OC)cc(OC)c2)c1 | > 100 | > 100 | > 100 | > 100 | – | 19.5 | – | – | – | – | 12.4 | 41.1 | 36.4 | –
